Assay results from US5616606A, “Oligopeptide antiretroviral agents” (priority 1995, dated 1997).
“And” between values parts separate entries of the source, which are not always exact repeats. Identical values can stand only once. Like-named read-outs stand apart in the source and are kept apart here.

What was measured:
[1] = system: HBV; experiment: inhibition of HBV DNA replication in 2.2.15 cell cultures; format: cell-based; conditions: single well, dihydrochloride; for INT[…] DNA MONO.: 24 hours following the 9th day of treatment
[2] = solubility in DMSO, MeOH, H2O; format: physicochemical; conditions: H2O
[3] = system: 2.2.15 cells; experiment: toxicity analysis, neutral red dye uptake in 2.2.15 cells; conditions: triplicate, ± standard deviation
[4] = system: T4 lymphocytes (CEM cell line); experiment: NCI anti-HIV screen, toxicity control in uninfected cells; format: cell-based
[5] = system: HIV-1
[6] = system: poly(dA-dT); experiment: ethidium displacement assay, poly(dA-dT); conditions: relative to ethidium 9.5 × 10^6 M^-1, average of repeat measurements
[7] = dose 1.05 × 10^-8 Molar, Table VIII
[8] = dose 1.09 × 10^-7 Molar, Table VIII
[9] = dose 3.31 × 10^-6 Molar, Table VIII
[10] = dose 3.31 × 10^-7 Molar, Table VIII
[11] = dose 3.32 × 10^-8 Molar, Table VIII
[12] = dose […] 10^-6 Molar, Table VIII
[13] = HIV-1 infected CEM cells, 6 days, XTT, Tables VI-X
[14] = dose 1.79 × 10^-6 Molar, Table VI
[15] = dose 1.79 × 10^-7 Molar, Table VI
[16] = dose 1.79 × 10^-8 Molar, Table VI
[17] = dose 5.66 × 10^-6 Molar, Table VI
[18] = dose 5.67 × 10^-7 Molar, Table VI
[19] = dose 5.68 × 10^-8 Molar, Table VI
[20] = dose 5.68 × 10^-9 Molar, Table VI
[21] = dose 1.34 × 10^-3 Molar, Table VII
[22] = dose 1.34 × 10^-4 Molar, Table VII
[23] = dose 1.35 × 10^-5 Molar, Table VII
[24] = dose 1.35 × 10^-6 Molar, Table VII
[25] = dose 4.26 × 10^-4 Molar, Table VII
[26] = dose 4.26 × 10^-5 Molar, Table VII
[27] = dose 4.27 × 10^-6 Molar, Table VII
[28] = dose 4.28 × 10^-7 Molar, Table VII

Question: For Cl.Cl.Cn1cc(NC(=O)c2cc(NC(=O)CCCCC(=O)Nc3cc(C(=O)Nc4cc(C(=O)NCCC(=N)N)n(C)c4)n(C)c3)cn2C)cc1C(=O)NCCC(=N)N [Compound 7, N,N'-Di(1-methyl-2-[1-methyl-2-carboxamido(3-proprionamidine)-4-pyrrole]-4-pyrrolyl) adipamide dihydrochloride], which “INT[…] DNA MONO.” value ([1]; 10 μM) is on record?
Answer: Its value is 2.1 pg/μg CELL DNA and 2.3 pg/μg CELL DNA and 2.2 pg/μg CELL DNA and 2.6 pg/μg CELL DNA.

Question: What about the “HBV VIRION DNA DAY 0” value ([1]; 10 μM, day 0) of the same molecule?
Answer: The value was 75 pg/ml CULTURE MEDIUM and 92 pg/ml CULTURE MEDIUM and 60 pg/ml CULTURE MEDIUM and 55 pg/ml CULTURE MEDIUM.

Question: And the “HBV VIRION DNA DAY 6” value ([1]; 10 μM)?
Answer: Its value is 68 pg/ml CULTURE MEDIUM and 67 pg/ml CULTURE MEDIUM and 57 pg/ml CULTURE MEDIUM and 50 pg/ml CULTURE MEDIUM.

Question: And the “HBV VIRION DNA DAY 9” value ([1]; 10 μM)?
Answer: Its value is 56 pg/ml CULTURE MEDIUM and 57 pg/ml CULTURE MEDIUM and 87 pg/ml CULTURE MEDIUM and 58 pg/ml CULTURE MEDIUM.

Question: And the “INT[…] DNA MONO.” value ([1]; 50 μM)?
Answer: Its value is 2.7 pg/μg CELL DNA and 2.5 pg/μg CELL DNA and 2.3 pg/μg CELL DNA.

Question: What about the “HBV VIRION DNA DAY 6” value ([1]; 50 μM) of the same molecule?
Answer: Its value is 67 pg/ml CULTURE MEDIUM and 75 pg/ml CULTURE MEDIUM and 83 pg/ml CULTURE MEDIUM and 69 pg/ml CULTURE MEDIUM.

Question: And the “HBV VIRION DNA DAY 9” value ([1]; 50 μM, zero = undetectable, cutoff 0.1 pg/ml)?
Answer: The value was 63 pg/ml CULTURE MEDIUM and 68 pg/ml CULTURE MEDIUM and 77 pg/ml CULTURE MEDIUM and 66 pg/ml CULTURE MEDIUM.

Question: And the “Solubility in H2O” value [2]?
Answer: Its value is “good”.

Question: What about the “NEUTRAL RED DYE UPTAKE” value ([3]; 30 μg/ml) of the same molecule?
Answer: Its value is 102 ± 1 % OF CONTROL.

Question: What about the “NEUTRAL RED DYE UPTAKE” value ([3]; 300 μg/ml) of the same molecule?
Answer: Its value is 98 ± 2 % OF CONTROL.

Question: With Cl.Cl.Cn1cc(NC(=O)c2cc(NC(=O)/C=C/C(=O)Nc3cc(C(=O)Nc4cc(C(=O)NCCC(=N)N)n(C)c4)n(C)c3)cn2C)cc1C(=O)NCCC(=N)N [Compound 21b, N,N'-di[1-methyl-2-[1-methyl-2-carboxamido(3-propionamidine)-4-pyrrole]-4-4pyrrolyl] fumaride dihydrochloride] as the molecule, how does the “[…] % of Control” value [4, 7] read?
Answer: The value was 83.05 % of Control.

Question: And the “[…] % of Control” value [4, 8]?
Answer: The value was 90.26 % of Control.

Question: And the “[…] % of Control” value [4, 9]?
Answer: Its value is 151.83 % of Control.

Question: And the “[…] % of Control” value [4, 10]?
Answer: Its value is 88.21 % of Control.

Question: What about the “[…] % of Control” value [4, 11] of the same molecule?
Answer: Its value is 67.56 % of Control.

Question: And the “[…] % of Control” value [4, 12]?
Answer: The value was 83.87 % of Control.

Question: And the EC50 [5, 13]?
Answer: The EC50 was 1670 nM.

Question: And the EC50 ([5]; Table XI)?
Answer: The EC50 was 1370 nM.

Question: And the “INFECTED RESPONSE % of Control” value [5, 7]?
Answer: Its value is 18.00 % of Control.

Question: What about the “INFECTED RESPONSE % of Control” value [5, 8] of the same molecule?
Answer: The value was 26.15 % of Control.

Question: And the “INFECTED RESPONSE % of Control” value [5, 9]?
Answer: Its value is 96.78 % of Control.

Question: And the “INFECTED RESPONSE % of Control” value [5, 10]?
Answer: The value was 20.00 % of Control.

Question: What about the “INFECTED RESPONSE % of Control” value [5, 11] of the same molecule?
Answer: The value was 22.96 % of Control.

Question: What about the “INFECTED RESPONSE % of Control” value [5, 12] of the same molecule?
Answer: Its value is 38.90 % of Control.

Question: What about the Kapp [6] of the same molecule?
Answer: The Kapp was 4.9e+07 M⁻¹.

Question: For Cl.Cl.Cn1cc(NC(=O)c2cc(NC(=O)/C=C\C(=O)Nc3cc(C(=O)Nc4cc(C(=O)NCCC(=N)N)n(C)c4)n(C)c3)cn2C)cc1C(=O)NCCC(=N)N [Compound 22b, N,N'-Di(1-methyl-2-carboxamido(3-(proprionamidine-4-pyrrole]-4-pyrrolyl)maleamidedihydrochloride], which EC50 [5, 13] is on record?
Answer: Its EC50 is 4040 nM.

Question: And the EC50 ([5]; Table XI)?
Answer: The EC50 was 350 nM.

Question: What does the source list for Cl.Cl.Cn1cc(NC(=O)c2cc(NC(=O)c3ccc(C(=O)Nc4cc(C(=O)Nc5cc(C(=O)NCCC(=N)N)n(C)c5)n(C)c4)cc3)cn2C)cc1C(=O)NCCC(=N)N [Compound 19b, N,N'-di[1-methyl-2-[1-methyl-2-carboxamido(3-propionamidine)-4-pyrrole]-4-pyrrolyl] terephthalamide dihydrochloride]?
Answer: […] % of Control [4]: 192.17 % of Control; IC50 ([4]; Table XI): 17.9 µM; […] % of Control [4, 14]: 136.50 % of Control; […] % of Control [4, 15]: 92.72 % of Control; […] % of Control [4, 16]: 92.56 % of Control; […] % of Control [4, 17]: 164.46 % of Control; […] % of Control [4, 18]: 88.21 % of Control; […] % of Control [4, 19]: 94.69 % of Control; […] % of Control [4, 20]: 68.62 % of Control; IC50 ([4]; uninfected CEM cells, 6 days, XTT, Tables VI-X): > 1.79 × 10^-5 Molar; EC50 [5, 13]: 2080 nM; EC50 ([5]; Table XI): 1210 nM; INFECTED RESPONSE % of Control ([5]; dose 1.79 × 10^-5 Molar, Table VI): 167.25 % of Control; INFECTED RESPONSE % of Control [5, 14]: 51.73 % of Control; INFECTED RESPONSE % of Control [5, 15]: 29.97 % of Control; INFECTED RESPONSE % of Control [5, 16]: 33.00 % of Control; INFECTED RESPONSE % of Control [5, 17]: 134.54 % of Control; INFECTED RESPONSE % of Control [5, 18]: 28.86 % of Control; INFECTED RESPONSE % of Control [5, 19]: 23.70 % of Control; INFECTED RESPONSE % of Control [5, 20]: 39.64 % of Control; Kapp [6]: 4.3e+07 M⁻¹

Question: For Cl.Cl.Cn1cc(NC(=O)c2cc(NC(=O)c3cccc(C(=O)Nc4cc(C(=O)Nc5cc(C(=O)NCCC(=N)N)n(C)c5)n(C)c4)c3)cn2C)cc1C(=O)NCCC(=N)N [Compound 20b, N,N'-di[1-methyl-2-[1-methyl-2-carboxamido(3-propionamidine)-4-pyrrole]-4-pyrrolyl] isophthalamide dihydrochloride], which “[…] % of Control” value [4, 21] is on record?
Answer: The value was 10.39 % of Control.

Question: What about the “[…] % of Control” value [4, 22] of the same molecule?
Answer: Its value is 142.80 % of Control.

Question: What about the “[…] % of Control” value [4, 23] of the same molecule?
Answer: Its value is 117.76 % of Control.

Question: And the “[…] % of Control” value [4, 24]?
Answer: The value was 131.95 % of Control.

Question: What about the “[…] % of Control” value [4, 25] of the same molecule?
Answer: The value was -0.29 % of Control.

Question: And the “[…] % of Control” value [4, 26]?
Answer: The value was 123.27 % of Control.

Question: And the “[…] % of Control” value [4, 27]?
Answer: Its value is 123.64 % of Control.

Question: And the “[…] % of Control” value [4, 28]?
Answer: The value was 116.38 % of Control.

Question: What about the EC50 [5, 13] of the same molecule?
Answer: Its EC50 is 3550 nM.

Question: And the “INFECTED RESPONSE % of Control” value [5, 21]?
Answer: Its value is 4.26 % of Control.

Question: What about the “INFECTED RESPONSE % of Control” value [5, 22] of the same molecule?
Answer: Its value is 63.57 % of Control.

Question: And the “INFECTED RESPONSE % of Control” value [5, 23]?
Answer: Its value is 117.45 % of Control.

Question: And the “INFECTED RESPONSE % of Control” value [5, 24]?
Answer: The value was 29.25 % of Control.

Question: What about the “INFECTED RESPONSE % of Control” value [5, 25] of the same molecule?
Answer: The value was 0.02 % of Control.

Question: What about the “INFECTED RESPONSE % of Control” value [5, 26] of the same molecule?
Answer: The value was 120.68 % of Control.

Question: What about the “INFECTED RESPONSE % of Control” value [5, 27] of the same molecule?
Answer: The value was 64.76 % of Control.

Question: And the “INFECTED RESPONSE % of Control” value [5, 28]?
Answer: Its value is 48.47 % of Control.

Question: And the Kapp [6]?
Answer: The Kapp was 4.9e+07 M⁻¹.
